Data on 6 compounds can be found in patent US6900194B1, “Use of substituted 4-biarylbutyric and 5-biarylpentanoic acid derivatives as matrix metalloprotease inhibitors for the treatment of respiratory diseases” (Bayer Aktiengesellschaft, priority 1998, dated 2005).

The structures appear in SMILES notation.

The IC50 is the concentration that inhibits the measured activity by half.

Test [1] addresses T1, MMP-12 (Macrophage Elastase) (Homo sapiens, UniProt P39900).
T1 construct: made in house; host or cells: E. coli BL21 (DE3)
The test is described as follows: P218 quenched fluorescence assay, MMP-12. Conditions: table 3. The format is biochemical. From the text:
P218 Quenched Fluorescence Assay for MMP Inhibition:
This assay is adapted from the one described by Knight et al., FEBS Letters, 296, 263-266 (1992) for MMP-3 and a related substrate. The rate of hydrolysis of the synthetic substrate H-MCA-Pro-Lys-Pro-Leu-Ala-Leu-DPA-Ala-Arg-NH2 (P218) by the respective MMPs is monitored fluorometrically, using an excitation wavelength of 340 nm and an emission wavelength of 395 nm, in the presence or absence of the test compounds. The substrate is made up initially in 100% DMSO to a concentration of 1×10^−2 M, then diluted in assay buffer to a final concentration of 20 μM. Test compounds (10 mM in DMSO) are diluted in assay buffer at an initial concentration of 0.3-1000 nM. These are diluted to a final concentration in the assay from 0.03 nM to 100 nM. The reaction is initiated by the addition of substrate at a final concentration of 20 μM. The total assay volume in a 96 well microtitre plate is 150 μl, Cleavage of the substrate between the Leu-Ala residues allows the fluorescence of the MCA group to be detected on a fluorometer (Cytofluor II) following excitation at 340 nm and emission at 395 nm. Change in fluorescence is continually monitored for a 40 min period.
The Ki's are calculated using the method described by Williams and Morrison, Methods in Enzymology, 63, 437-467 (1979) to measure Ki apparent for tight binding inhibitors, and is summarised as follows: [I]0/(1−vi/v0)=Ki apparent ×vi/v0+[E]0 [I]0 and [E]0 are inhibitor and enzyme concentrations, and vi/v0 are reaction velocities with/without inhibitor. [I]0 is equal to IC50 when vi is half v0, so that: IC50=0.5×[E]0+Ki apparent
IC50's are determined at each enzyme concentration using Xlfit software. Ki apparent is then determined graphically from the plot of IC50 versus MMP concentration, using the intercepts to estimate Ki apparent. Thus, intercept values at IC50=0 and [E]0=0 are equal to −2×Ki apparent and Ki apparent, respectively. IC50 values are calculated using % inhibition values at each enzyme concentration, ensuring data is taken from the linear part of the reaction rate curves. The Ki can then be calculated from the equation: Ki=Ki apparent/[…] where S=substrate concentration and Km=dissociation constant.
The assay conditions are modified as follows for each of the MMPs used:
MMP-12 (Macrophage Elastase)
[…] is isolated according to the following procedure: Human GenePool cDNA libraries from human lung, spleen, and brain were obtained from Invitrogen (Groningen, The Netherlands). HPLC-purified oligonucleotides were purchased from BioTez (Berlin, Germany), E. coli strain DH5α from Life Technologies (Heidelberg, Germany), strain BL21(DE3) from Novagen (Heidelberg, Germany). Pfu DNA-Polymerase and pBlueScriptII-KS(+) were from Stratagene (Heidelberg, Germany). DNA plasmid and DANN gel isolation kits were purchased from Qiagen (Hilden, Germany). All restriction enzymes and DNA modifying enzymes were ordered from New England Biolabs (Schwalbach, Germany). HiTrapQ (5 ml) was from Pharmacia Biotech (Freiburg, Germany). Vydac C4-RP HPLC columns (214TP54: 300 Å, 5 μm, 4.6×250 mm; 214TP1022: 300 Å, 10 μm, 22×250 mm) were from Promochem (Wesel, Germany). Fluorogenic substrate P218 was purchased from Polypeptide Laboratories (Wolfenbüttel, Germany). Ultrapure urea was purchased from Schwarz-Mann (Cleveland, Ohio). Ready-to-use NuPAGE 10% Bis-Tris Polyacrylamide SDS-PAGE gels and NuPAGE 20×MOPS running buffer were obtained from Novex (Frankfurt/Main, Germany) 10% AMPA and all other chemicals were from Sigma (Deisenhofen, Germany). […]

The subject of test [2] is Murine peritoneal macrophages. The conditions noted are these: read-out: IC50, inhibition of trafficking of murine peritoneal macrophages across artificial basement membrane; Matrigel; murine MCP-1 5 ng/ml; 48-98 h. Here is the method:
(§1) In vitro Functional Tests • 1. Human alveolar macrophages • Human alveolar macrophages were obtained by bronchoscopy of healthy smoking volunteers. Cells were spun and resuspended at 2×10^6/ml. Trafficking of alveolar macrophages (+or −lipopolysaccharide 2.5 μg.ml) across an artificial basement membrane (Matrigel) was induced by human MCP-1 (5 ng/ml) over a 48-98 h period. […] Murine peritoneal macrophages • Murine macrophages were obtained from mice 5 days after an intraperitoneal injection of thioglycollate. Cells were spun and resuspended at 2×10^6/ml. Trafficking of peritoneal macrophages across an artificial basement membrane (Matrigel) was induced by murine MCP-1 (5 ng/ml) over a 48-98 h period. […] LPS Induced TNFα Production in Mice

Test [3] deals with Human alveolar macrophages. The conditions noted are these: read-out: IC50, inhibition of MCP-1-induced trafficking of human alveolar macrophages across artificial basement membrane; Matrigel; human MCP-1 5 ng/ml; 48-98 h; + or − lipopolysaccharide. Here is the method: as §1

T1 sequence (P39900 106-470): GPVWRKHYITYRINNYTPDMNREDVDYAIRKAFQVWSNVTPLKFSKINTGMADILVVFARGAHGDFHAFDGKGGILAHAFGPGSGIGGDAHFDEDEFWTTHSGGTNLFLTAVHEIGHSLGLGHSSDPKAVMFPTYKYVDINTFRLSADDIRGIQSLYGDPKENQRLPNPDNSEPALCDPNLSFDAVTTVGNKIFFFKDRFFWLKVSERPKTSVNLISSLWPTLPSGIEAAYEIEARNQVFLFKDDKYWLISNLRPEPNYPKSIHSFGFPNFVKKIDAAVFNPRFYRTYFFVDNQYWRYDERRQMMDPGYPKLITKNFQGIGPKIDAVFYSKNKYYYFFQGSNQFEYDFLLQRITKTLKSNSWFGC

Consider `O=C(O)[C@H]1[C@H](CN2C(=O)c3cc4ccccc4cc3C2=O)CC[C@@H]1C(=O)c1ccc(-c2ccc(Cl)cc2)cc1` (racemic) [C-XVIII], for which the IC50 in test [1] was 1 nM.

In test [1], `O=C(O)[C@H]1[C@H](CN2C(=O)c3cc(Cl)c([N+](=O)[O-])cc3C2=O)CC[C@@H]1C(=O)c1ccc(-c2ccc(Cl)cc2)cc1` (racemic) [C-XXX] showed an IC50 of 4.5 nM.

With `O=C(c1ccc(-c2ccc(Cl)cc2)cc1)C1CCC(CN2C(=O)c3ccccc3C2=O)C1C(=O)O` (stereo not drawn) [(1α,2β,5β)-2-{[4′-chloro(1,1′-biphenyl)-4-yl]carbonyl}-5-[(1,3-dihydro-1,3-dioxo-2H-isoindol-2-yl)methyl]-cyclopentane carboxylic acid], the IC50 in test [2] and in test [3] was no more than 1000 nM in each case.

On to `CCCCCOc1ccc(-c2ccc(C(=O)CC(CCN3C(=O)c4ccccc4C3=O)C(=O)O)cc2)cc1` (stereo not shown) [C-III], for which the IC50 in test [1] is 2.8 nM.

`CCCOc1ccc2c(c1)C(=O)N(CCC(CC(=O)c1ccc(-c3ccc(Cl)cc3)cc1)C(=O)O)C2=O` (stereo not shown) [C-V]: the IC50 in test [1] is 1.7 nM.

Consider `O=C(CC(CCN1C(=O)c2ccccc2C1=O)C(=O)O)c1ccc(-c2ccc(OCc3ccccc3)cc2)cc1` (stereo not shown) [C-XXII], for which, in test [1], the IC50 amounted to 1.6 nM.
